Laboratory results: ChEMBL document CHEMBL3414561, “Discovery of 4'-chloromethyl-2'-deoxy-3',5'-di-O-isobutyryl-2'-fluorocytidine (ALS-8176), a first-in-class RSV polymerase inhibitor for treatment of human respiratory syncytial virus infection” (J Med Chem, 2015)
Calls of active or inactive are those of the source. The calls are words filed in the database; no cut-off is given here.

What was measured:
[1] = Drug uptake in Non-naive cynomolgus monkey assessed as lung NTP level at 5 mg/kg, po 4'-chloromethyl-2'-deoxy-2'-fluorocytidine equivalent dose after 12 hrs; assay type: ADME, organism-based, Macaca fascicularis; design: dose 5 mg/kg, route oral; details: in vivo, read-out: Drug uptake
[2] = Drug uptake in Non-naive cynomolgus monkey assessed as lung NMP level at 5 mg/kg, po 4'-chloromethyl-2'-deoxy-2'-fluorocytidine equivalent dose after 12 hrs; assay type: ADME, organism-based, Macaca fascicularis; design: dose 5 mg/kg, route oral; details: in vivo, read-out: Drug uptake
[3] = test system: Respiratory syncytial virus; test: Antiviral activity against Respiratory syncytial virus subgenomic replicon system in 395 HeLa cells assessed as reduction in viral replication after 7 days by renilla luciferase assay; assay type: functional, organism-based; details: human respiratory syncytial virus, 168 h
[4] = Cytotoxicity against human HeLa cells assessed as cell viability by CellTiter-Glo luminescent assay; assay type: cell-based
[5] = test system: Respiratory syncytial virus; test: Inhibition of Respiratory syncytial virus RNA polymerase in crude RSV RNP complex assessed as inhibition of [33P]CMP incorporation into RNA chain at 10 uM
[6] = Drug uptake in male syrian golden hamster assessed as lung NTP level at 5 mg/kg, iv after 1 hr; assay type: ADME, organism-based, Mesocricetus auratus; design: dose 5 mg/kg, route intravenous; details: in vivo, read-out: Drug uptake
[7] = Clearance in male syrian golden hamster at 5 mg/kg, iv; assay type: ADME, organism-based, Mesocricetus auratus; design: dose 5 mg/kg, route intravenous; details: in vivo
[8] = Drug uptake in Non-naive cynomolgus monkey assessed as lung NMP level at 5 mg/kg, iv after 1 hr; assay type: ADME, organism-based, Macaca fascicularis; design: dose 5 mg/kg, route intravenous; details: in vivo, read-out: Drug uptake
Syrian golden hamster = test: Ratio of uridine metabolite to parent cytidine in male syrian golden hamster at 5 mg/kg, iv; assay type: ADME, organism-based, Mesocricetus auratus; design: dose 5 mg/kg, route intravenous; details: in vivo
[9] = AUCinf in Sprague-Dawley rat at 5 mg/kg, iv; assay type: ADME, organism-based; design: time infinity, dose 5 mg/kg, route intravenous; details: plasma
Cynomolgus monkey = test: Ratio of uridine metabolite to parent cytidine in Non-naive cynomolgus monkey at 5 mg/kg, iv; assay type: ADME, organism-based, Macaca fascicularis; design: dose 5 mg/kg, route intravenous; details: in vivo
A549 = test: Drug metabolism in human A549 cells assessed as nucleotide 5'-triphosphate level measured per million cells at 50 uM after 1 to 5 days by LC/MS/MS analysis; assay type: ADME, cell-based; details: a549, 50 µM
[10] = Half life in Sprague-Dawley rat at 5 mg/kg, iv; assay type: ADME, organism-based; design: dose 5 mg/kg, route intravenous; details: in vivo
[11] = Clearance in Sprague-Dawley rat at 5 mg/kg, iv; assay type: ADME, organism-based; design: dose 5 mg/kg, route intravenous; details: in vivo
[12] = Drug uptake in Non-naive cynomolgus monkey assessed as lung NTP level at 5 mg/kg, iv after 1 hr; assay type: ADME, organism-based, Macaca fascicularis; design: dose 5 mg/kg, route intravenous; details: in vivo, read-out: Drug uptake
[13] = Half life in Non-naive cynomolgus monkey at 5 mg/kg, iv; assay type: ADME, organism-based, Macaca fascicularis; design: dose 5 mg/kg, route intravenous; details: in vivo
[14] = Half life in male syrian golden hamster at 5 mg/kg, iv; assay type: ADME, organism-based, Mesocricetus auratus; design: dose 5 mg/kg, route intravenous; details: in vivo
[15] = Drug metabolism in human Hep2 cells assessed as nucleotide 5'-triphosphate level measured per million cells at 50 uM after 1 to 5 days by LC/MS/MS analysis; assay type: ADME, cell-based; details: hep-2, 50 µM
[16] = Volume of distribution at steady state in male syrian golden hamster at 5 mg/kg, iv; assay type: ADME, organism-based, Mesocricetus auratus; design: dose 5 mg/kg, route intravenous; details: in vivo, read-out: Vdss
[17] = Volume of distribution at steady state in Sprague-Dawley rat at 5 mg/kg, iv; assay type: ADME, organism-based; design: dose 5 mg/kg, route intravenous; details: in vivo, read-out: Vdss
[18] = Clearance in Non-naive cynomolgus monkey at 5 mg/kg, iv; assay type: ADME, organism-based, Macaca fascicularis; design: dose 5 mg/kg, route intravenous; details: in vivo
[19] = AUCinf in Non-naive cynomolgus monkey at 5 mg/kg, iv; assay type: ADME, organism-based, Macaca fascicularis; design: time infinity, dose 5 mg/kg, route intravenous; details: plasma
[20] = AUCinf in male syrian golden hamster at 5 mg/kg, iv; assay type: ADME, organism-based, Mesocricetus auratus; design: time infinity, dose 5 mg/kg, route intravenous; details: plasma
[21] = Drug metabolism in human normal bronchial epithelial cells assessed as nucleotide 5'-triphosphate level measured per million cells at 50 uM after 1 to 5 days by LC/MS/MS analysis; assay type: ADME, cell-based; details: epithelial cell
[22] = Drug metabolism in human nasal cells assessed as nucleotide 5'-triphosphate level measured per million cells at 50 uM after 1 to 5 days by LC/MS/MS analysis; assay type: ADME, cell-based
[23] = Drug uptake in male syrian golden hamster assessed as lung NMP level at 5 mg/kg, iv after 1 hr; assay type: ADME, organism-based, Mesocricetus auratus; design: dose 5 mg/kg, route intravenous; details: in vivo, read-out: Drug uptake
[24] = Volume of distribution at steady state in Non-naive cynomolgus monkey at 5 mg/kg, iv; assay type: ADME, organism-based, Macaca fascicularis; design: dose 5 mg/kg, route intravenous; details: in vivo, read-out: Vdss
[25] = test system: Respiratory syncytial virus; test: Inhibition of Respiratory syncytial virus RNA polymerase in crude RSV RNP complex assessed as inhibition of [33P]CMP incorporation into RNA chain at 30 uM
[26] = target: DNA-directed RNA polymerase, mitochondrial (Homo sapiens) (UniProt O00411); test: Binding affinity to human mitochondrial RNA polymerase assessed as compound incorporation using [33P]RNA/DNA primer/templates used by […] gel electrophoresis
[27] = Inhibition of Respiratory syncytial virus RNA polymerase in crude RSV RNP complex assessed as inhibition of [33P]CMP incorporation into RNA chain
[28] = target: DNA polymerase beta (Homo sapiens) (UniProt P06746); test: Inhibition of human DNA-dependent DNA polymerase beta using calf thymus DNA/[3H]dTTP as substrate by microplate scintillation reader; details: concentration not given here
Homo sapiens [29] = organism: Homo sapiens; test: Inhibition of human DNA-directed RNA polymerase 2 using cytomegalovirus DNA fragment as substrate; details: concentration not given here
Homo sapiens [30] = organism: Homo sapiens; test: Inhibition of human DNA-dependent DNA polymerase gamma using calf thymus DNA/[3H]dTTP as substrate by microplate scintillation reader; details: concentration not given here
[31] = target: DNA-directed RNA polymerase, mitochondrial (Homo sapiens) (UniProt O00411); test: Inhibition of human mitochondrial RNA polymerase assessed as 13-mer product using [33P]RNA/DNA primer/templates used by […] gel electrophoresis
Homo sapiens [32] = organism: Homo sapiens; test: Inhibition of human DNA-dependent DNA polymerase alpha using calf thymus DNA/[3H]dTTP as substrate by microplate scintillation reader; details: concentration not given here

Sequence of DNA-directed RNA polymerase, mitochondrial (Homo sapiens) (O00411 whole entry): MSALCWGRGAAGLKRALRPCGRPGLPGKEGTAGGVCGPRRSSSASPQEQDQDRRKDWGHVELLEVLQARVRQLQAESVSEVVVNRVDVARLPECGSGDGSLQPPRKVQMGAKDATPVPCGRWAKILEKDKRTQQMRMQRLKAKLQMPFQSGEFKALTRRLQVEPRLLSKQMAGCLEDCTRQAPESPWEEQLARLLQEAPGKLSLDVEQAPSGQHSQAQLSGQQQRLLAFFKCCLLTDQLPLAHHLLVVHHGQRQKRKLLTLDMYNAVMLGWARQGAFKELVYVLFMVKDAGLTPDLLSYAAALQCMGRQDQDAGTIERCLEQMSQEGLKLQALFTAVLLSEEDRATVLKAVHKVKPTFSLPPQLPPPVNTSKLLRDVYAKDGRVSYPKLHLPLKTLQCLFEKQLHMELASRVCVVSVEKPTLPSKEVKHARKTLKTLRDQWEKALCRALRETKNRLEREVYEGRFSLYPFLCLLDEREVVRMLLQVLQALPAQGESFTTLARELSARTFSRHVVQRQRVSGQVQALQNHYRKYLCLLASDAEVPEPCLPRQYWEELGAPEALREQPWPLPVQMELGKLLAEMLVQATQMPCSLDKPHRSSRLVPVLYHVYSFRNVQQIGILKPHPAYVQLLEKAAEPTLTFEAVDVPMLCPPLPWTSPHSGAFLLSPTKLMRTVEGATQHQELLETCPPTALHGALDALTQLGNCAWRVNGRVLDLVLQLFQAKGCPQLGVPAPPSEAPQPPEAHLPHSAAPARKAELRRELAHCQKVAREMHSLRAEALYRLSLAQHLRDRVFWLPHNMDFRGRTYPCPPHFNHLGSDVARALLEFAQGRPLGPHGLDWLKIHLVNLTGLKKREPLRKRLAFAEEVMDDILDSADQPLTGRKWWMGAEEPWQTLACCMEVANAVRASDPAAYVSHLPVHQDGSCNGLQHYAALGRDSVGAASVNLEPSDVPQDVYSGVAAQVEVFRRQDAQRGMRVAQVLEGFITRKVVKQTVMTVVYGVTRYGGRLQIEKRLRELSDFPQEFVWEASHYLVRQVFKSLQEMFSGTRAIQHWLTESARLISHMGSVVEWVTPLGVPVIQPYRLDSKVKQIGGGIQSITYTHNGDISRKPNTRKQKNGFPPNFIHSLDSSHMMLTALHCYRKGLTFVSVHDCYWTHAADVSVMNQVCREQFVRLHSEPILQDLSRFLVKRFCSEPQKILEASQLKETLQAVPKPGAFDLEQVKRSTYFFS

Row | concentration [1] [nM] | concentration [2] [nM] | EC50 [3] [nM] | concentration [8] [nM] | AUC(0-inf) [9] [ng·h/mL] | Ratio (Cynomolgus monkey) | Drug metabolism (A549) [pmol] | half-life [10] [h] | clearance [11] [mL/min/kg] | concentration [12] [nM] | half-life [13] [h] | Drug metabolism [15] [pmol] | Vd [17] [L/kg] | clearance [18] [mL/min/kg] | AUC(0-inf) [19] [ng·h/mL] | Drug metabolism [21] [pmol] | Drug metabolism [22] [pmol] | Vd [24] [L/kg] | SMILES | CC50 [4] [nM] | other results
1 | 915 | 861 | 60 |  |  |  |  |  |  |  |  |  |  |  |  |  |  |  | CC(C)[C@H](N)C(=O)O[C@H]1[C@@H](F)[C@H](n2ccc(N)nc2=O)O[C@@]1(CO)CCl | > 100000 | 
2 |  |  |  |  |  |  |  |  |  |  |  |  |  |  |  |  |  |  | Nc1ccn([C@@H]2O[C@](CCl)(COP(=O)(O)OP(=O)(O)OP(=O)(O)O)[C@@H](O)C2(F)F)c(=O)n1 |  | inhibition [5]: 38%
3 |  |  | 420 | 3310 | 3140 | 0.67 | 85.1 | 1.34 | 25.5 | 3070 | 7.52 | 119 | 1.67 | 19.2 | 4360 | 489 | 140 | 1.8 | CC[C@]1(CO)O[C@@H](n2ccc(N)nc2=O)[C@H](F)[C@@H]1O | > 100000 | concentration [6]: 42.2 nM; clearance [7]: 34.1 mL/min/kg; Ratio (Syrian golden hamster): 0.0005; half-life [14]: 1.23 h; Vd [16]: 1.07 L/kg; AUC(0-inf) [20]: 2460 ng·h/mL; concentration [23]: 144 nM
4 | 185 | 254 | 150 | 9920 | 2670 | 0.48 | 137 | 6.01 | 31.8 | 4060 | 5.44 | 94.7 | 4.1 | 28 | 2980 | 581 | 185 | 3 | Nc1ccn([C@@H]2O[C@@](CO)(CCl)[C@@H](O)[C@H]2F)c(=O)n1 [ALS-8112] | > 100000 | concentration [6]: 70.9 nM; clearance [7]: 28.6 mL/min/kg; Ratio (Syrian golden hamster): 0.025; half-life [14]: 3.98 h; Vd [16]: 2.3 L/kg; AUC(0-inf) [20]: 3230 ng·h/mL; concentration [23]: 287 nM
5 |  |  |  |  |  |  |  |  |  |  |  |  |  |  |  |  |  |  | Nc1ccn([C@@H]2O[C@](CCl)(COP(=O)(O)OP(=O)(O)OP(=O)(O)O)[C@@H](O)[C@@H]2O)c(=O)n1 |  | inhibition [25]: 6%
6 |  |  | 160 | 5580 | 31800 | 3.39 | 55 | 9.49 | 2.69 | 374 | 7.66 | 27.9 | 1.87 | 54.3 | 1540 | 153 | 240 | 5.6 | Nc1ccn([C@@H]2O[C@@](CO)(CF)[C@@H](O)[C@H]2F)c(=O)n1 | > 100000 | 
7 |  |  |  |  |  |  |  |  |  |  |  |  |  |  |  |  |  |  | Nc1ccn([C@@H]2O[C@](CF)(COP(=O)(O)OP(=O)(O)OP(=O)(O)O)[C@@H](O)[C@H]2F)c(=O)n1 |  | Activity [26]: Active; IC50 [27]: 120 nM; inhibition [28]: < 50%; inhibition (Homo sapiens [29]): < 50%; inhibition (Homo sapiens [30]): < 50%; inhibition [31]: Active; inhibition (Homo sapiens [32]): < 50%
8 | 1480 | 679 | 260 |  |  |  |  |  |  |  |  |  |  |  |  |  |  |  | CC(C)C(=O)OC[C@@]1(CCl)O[C@@H](n2ccc(N)nc2=O)[C@H](F)[C@@H]1OC(=O)C(C)C [LUMICITABINE] | > 100000 | 
